# Reference: US11964978B2, “Modulators of STING (stimulator of interferon genes)” (PFIZER INC., priority 2021, dated 2024)
# Like-named read-outs stand apart in the source and are kept apart here.
# Tests used:
# [1] = test system: phosphorylation of IRF3 in THP-1 cells (STING activation); assay: Phosphorylation of IRF3: THP-1 cell ELISA; format: cell-based; settings: Homo sapiens, 3 hours incubation, read-out: THP-1 CELL P-IRF3 EC50
# Method: Phosphorylation of IRF3: THP-1 cell ELISA
# STING activation results in recruitment of TBK1 and phosphorylation of IRF3 transcription factor before induction of type I interferons. THP-1 cells (InvivoGen) were grown in RPMI media plus 2 mM L-glutamine, 10% fetal bovine serum, and 0.5% Pen-Strep. 10^4 cells were seeded in 96-well plates and incubated overnight […]. Compounds serial diluted compounds in media (final 0.5% DMSO) were added to the cells and incubated for an additional 3 hours. After incubation, the plates were centrifuged at 2000 rpm for 5 min. The cells were then lysed in 100 μl RIPA buffer and vortexed for 30 minutes at room temperature. 25 μl of lysate was then transferred to clear polystyrene High Bind plates that had been previously coated with mouse anti-human IRF-3 capture antibody (BD Pharmigen), and allowed to incubate at 4° C. for 16 hours. The plates were then washed and incubated with rabbit anti-phospho-IRF3 detection antibody (Cell Signaling Technologies) for 1.5 hours at room temperature. Finally, an HRP-linked secondary antibody (Cell Signaling Technologies) was added for 30 min before the Glo Substrate Reagent (R&D Systems) was used generate the luminescent signal. The signal was measured using a Perkin-Elmer Envision microplate reader. Data were normalized to “% effect” with a positive control STING agonist that was known to maximize the phosphorylated IRF3 signal and the negative control was DMSO.
# [2] = test system: THP-1 Lucia ISG cells (IRF-inducible Lucia luciferase reporter); assay: Interferon-β induction: THP-1 ISG reporter cell line; format: cell-based; settings: THP1-Lucia ISG, 24 hours incubation, read-out: THP-1 Lucia ISG Cells IFN-β EC50
# Method: Interferon-β Induction: THP-1 ISG Reporter Cell Line
# THP-1 Lucia™ ISG cells (InvivoGen) express the secreted luciferase “Lucia” reporter gene under the control of an IRF-inducible composite promotor comprised of five interferon response elements. THP-1 Lucia™ ISG cells were grown in RPMI media plus 2 mM L-glutamine, 10% fetal bovine serum, and 0.5% Pen-Strep. Hygromycin B and Zeocin were present to maintain stable transfection. 10^4 cells were seeded in 96-well plates and incubated overnight 37° C., 5% CO2. 50 μL of serial diluted compounds in media (final 0.5% DMSO) was and incubated for an additional 24 hours. After incubation, the plates were centrifuged at 2000 rpm for 10 min. 50 μl of cell culture supernatant of each well was transferred to a white, opaque 96-well plate. One pouch of QUANTI-Luc™ (InvivoGen) powder was prepared in 25 mL of endotoxin-free water and 100 μL of prepared warm QUANTI-Luc solution were added to each well containing the supernatant. The luminescence signal was measured using a Perkin-Elmer Envision microplate reader. Data were normalized to “% effect” with a positive control STING agonist that was known to maximize the luciferase signal and the negative control DMSO.
# R232-STING [3] = biological target: T1, R232-STING (Homo sapiens (Human), UniProt Q86WV6, H232R); assay: biochemical
# R232-STING [4] = biological target: T1, R232-STING; settings: read-out: R232-STING SPA-IC50 Ki; STING residues 155-341, 100 nM 3H-cGAMP; KI from IC50 with Cheng-Prusoff equation
# T1 sequence (Q86WV6 155-341 H232R): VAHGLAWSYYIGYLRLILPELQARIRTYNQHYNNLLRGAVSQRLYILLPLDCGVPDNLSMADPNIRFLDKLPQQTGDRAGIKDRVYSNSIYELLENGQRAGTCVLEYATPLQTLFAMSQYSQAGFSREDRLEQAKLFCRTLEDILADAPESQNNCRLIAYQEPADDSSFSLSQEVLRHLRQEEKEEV
EC50 [1],EC50 [2],Ki (R232-STING [4]),SMILES,Ki (R232-STING [3])
1230 nM,1250 nM,,"CCn1nc(C)cc1-c1cn(CC(C)O)c(-c2nc(C(N)=O)cc3c2cnn3C)n1 (racemic) [AIP05, (Rac)-4-[4-(1-ethyl-3-methyl-1H-pyrazol-5-yl)-1-(2-hydroxypropyl)-1H-imidazol-2-yl]-1-methyl-1H-pyrazolo[4,3-c]pyridine-6-carboxamide]",27.1 nM
> 10000 nM,> 10000 nM,43.1 nM,"Cc1cc(-c2cn(C)c(-c3nc(C(N)=O)cc4c3cnn4C)n2)n(CC#N)n1 [Example AIP01, 4-{4-[1-(cyanomethyl)-3-methyl-1H-pyrazol-5-yl]-1-methyl-1H-imidazol-2-yl}-1-methyl-1H-pyrazolo[4,3-c]pyridine-6-carboxamide]",
> 10000 nM,> 10000 nM,161 nM,"Cc1cc(-c2cn(C)c(-c3nc(C(N)=O)cc4c3cnn4C)n2)n(CC(N)=O)n1 [Example AIP02, 4-{4-[1-(2-amino-2-oxoethyl)-3-methyl-1H-pyrazol-5-yl]-1-methyl-1H-imidazol-2-yl}-1-methyl-1H-pyrazolo[4,3-c]pyridine-6-carboxamide]",
2240 nM,2260 nM,62.6 nM,"Cc1cc(-c2cn(C)c(-c3nc(C(N)=O)cc4c3cnn4C)n2)n(CCC#N)n1 [Example AIQ01, 4-{4-[1-(2-cyanoethyl)-3-methyl-1H-pyrazol-5-yl]-1-methyl-1H-imidazol-2-yl}-1-methyl-1H-pyrazolo[4,3-c]pyridine-6-carboxamide]",

SMILES,EC50 [1],EC50 [2],Ki (R232-STING [4]),Ki (R232-STING [3])
"Cc1cc(-c2cn(C)c(-c3nc(C(N)=O)cc4c3ccn4C)n2)n(CCCO)n1 [AIJ02, 4-{4-[1-(3-hydroxypropyl)-3-methyl-1H-pyrazol-5-yl]-1-methyl-1H-imidazol-2-yl}-1-methyl-1H-pyrrolo[3,2-c]pyridine-6-carboxamide]",1510 nM,1920 nM,,39.7 nM
